Measured values taken from US20090163586A1, “Bis-(Sulfonylamino) Derivatives in Therapy 205” (AstraZeneca AB, priority 2007, published 2009).

Target: T1, human mPGES-1 (Homo sapiens, UniProt O14684)
T1 sequence (O14684 1-152): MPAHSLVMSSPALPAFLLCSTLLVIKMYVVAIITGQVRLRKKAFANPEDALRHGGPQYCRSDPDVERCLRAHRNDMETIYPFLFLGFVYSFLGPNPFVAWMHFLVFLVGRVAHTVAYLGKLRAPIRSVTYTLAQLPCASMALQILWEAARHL
Test: Microsomal prostaglandin E synthase biochemical assay
Settings: microsome preparation containing human mPGES-1; PGH2 10.8 μM, GSH 2.5 mM, pH 6.8; PGE2 by HTRF; average of at least n=2
Summary of the method: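 Human mPGES-1 microsomes at 2 μg/mL were pre-incubated 15 min with compound (60 μM to 0.002 μM) in 50 mM potassium phosphate pH 6.8 with 2.5 mM GSH. The reaction was started with 10.8 μM PGH2 and stopped after 1 minute with acidic ferric chloride/citrate. PGE2 was quantified by HTRF; IC50 is the mean of at least 2 runs.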

| Structure (SMILES) | IC50 [nM] |
| --- | --- |
| Cc1ccc(NS(=O)(=O)/C=C/c2ccc3ccccc3c2)c(S(N)(=O)=O)c1 [Example 96, 5-Methyl-2-[[(E)-2-naphthalen-2-ylethenyl]sulfonylamino]benzenesulfonamide] | 4800 |
| NS(=O)(=O)c1c(F)cc(F)cc1NS(=O)(=O)CCc1ccc(Cl)c(Cl)c1 [Example 197, 2-(2-(3,4-Dichlorophenyl)ethylsulfonamido)-4,6-difluorobenzenesulfonamide] | 640 |
| NS(=O)(=O)c1ccccc1NS(=O)(=O)/C=C/c1ccccc1F [Example 193, (E)-2-(2-(2-Fluorophenyl)vinylsulfonamido)benzenesulfonamide] | 7900 |
| CC(C)(C)C#Cc1ccc(CCS(=O)(=O)Nc2ccccc2S(N)(=O)=O)cn1 [Example 187, 2-(2-(6-(3,3-Dimethylbut-1-ynyl)pyridin-3-yl)ethylsulfonamido)benzenesulfonamide] | 680 |
| Cc1ccc(NS(=O)(=O)/C=C/c2cccc(Cl)c2)c(S(N)(=O)=O)c1 [Example 63, 2-[[(E)-2-(3-Chlorophenyl)ethenyl]sulfonylamino]-5-methyl-benzenesulfonamide] | 3000 |
| NS(=O)(=O)c1ccccc1NS(=O)(=O)CCc1ccc2ccccc2c1 [Example 110, 2-(2-Naphthalen-2-ylethylsulfonylamino)benzenesulfonamide] | 490 |
| CC(Cc1ccc(Cl)cc1)S(=O)(=O)Nc1ccccc1S(N)(=O)=O (stereo not drawn) [Example 7, 2-[1-(4-Chlorophenyl)propan-2-ylsulfonylamino]benzenesulfonamide] | 280 |
| NS(=O)(=O)c1ccccc1NS(=O)(=O)/C=C/c1ccc(Br)cc1 [Example 106, 2-[[(E)-2-(4-Bromophenyl)ethenyl]sulfonylamino]benzenesulfonamide] | 74 |
| NS(=O)(=O)c1ccccc1NS(=O)(=O)c1cccc(-c2ccc3c(c2)CCO3)c1 [Example 137, 2-[[3-(2,3-Dihydrobenzofuran-5-yl)phenyl]sulfonylamino]benzenesulfonamide] | 2100 |
| NS(=O)(=O)c1c(F)cccc1NS(=O)(=O)/C=C/c1ccc(Br)cc1 [Example 91, 2-[[(E)-2-(4-Bromophenyl)ethenyl]sulfonylamino]-6-fluoro-benzenesulfonamide] | 310 |
| NS(=O)(=O)c1ccccc1NS(=O)(=O)c1ccc(-c2ccc(Cl)c(Cl)c2)cc1 [Example 173, 2-[[4-(3,4-Dichlorophenyl)phenyl]sulfonylamino]benzenesulfonamide] | 1500 |
| NS(=O)(=O)c1ccccc1NS(=O)(=O)c1cccc(F)c1F [Example 146, 2,3-Difluoro-N-(2-sulfamoylphenyl)benzenesulfonamide] | 4700 |
| COc1ccccc1/C=C/S(=O)(=O)Nc1c(F)cccc1S(N)(=O)=O [Example 60, 3-Fluoro-2-[[(E)-2-(2-methoxyphenyl)ethenyl]sulfonylamino]benzenesulfonamide] | 2400 |
| COc1ncc(-c2cccc(S(=O)(=O)Nc3ccccc3S(N)(=O)=O)c2)cc1F [Example 164, 3-(5-Fluoro-6-methoxy-pyridin-3-yl)-N-(2-sulfamoylphenyl)benzenesulfonamide] | 190 |
| NS(=O)(=O)c1cc(O)ccc1NS(=O)(=O)c1cccc(Cl)c1Cl [Example 157, 2-(2,3-Dichloro-benzenesulfonylamino)-5-hydroxy-benzenesulfonamide] | 1100 |
| C/C(=C\c1ccc(Cl)cc1)S(=O)(=O)Nc1ccc(C)cc1S(N)(=O)=O [Example 15, 2-[[(E)-1-(4-Chlorophenyl)prop-1-en-2-yl]sulfonylamino]-5-methyl-benzenesulfonamide] | 7600 |
| NS(=O)(=O)c1cc(F)ccc1NS(=O)(=O)/C=C/c1ccccc1C(F)(F)F [Example 100, 5-Fluoro-2-[[(E)-2-[2-(trifluoromethyl)phenyl]ethenyl]sulfonylamino]-benzenesulfonamide] | 4000 |
| COc1ccc(/C=C/S(=O)(=O)Nc2ccccc2S(N)(=O)=O)cc1 [Example 77, 2-[[(E)-2-(4-Methoxyphenyl)ethenyl]sulfonylamino]benzenesulfonamide] | 3100 |
| CC(C)(C)C#Cc1ccc(CCS(=O)(=O)Nc2ccc(CO)cc2S(N)(=O)=O)cc1 [Example 211, 2-{2-[4-(3,3-Dimethyl-but-1-ynyl)-phenyl]-ethanesulfonylamino}-5-hydroxymethyl-benzenesulfonamide] | 75 |
| CC(C)Oc1ccccc1/C=C/S(=O)(=O)Nc1ccccc1S(N)(=O)=O [Example 219, (E)-2-(2-(2-isopropoxyphenyl)vinylsulfonamido)benzenesulfonamide] | 950 |
| NS(=O)(=O)c1ccccc1NS(=O)(=O)/C=C/c1c(F)cccc1F [Example 103, 2-[[(E)-2-(2,6-Difluorophenyl)ethenyl]sulfonylamino]benzenesulfonamide] | 9200 |

| Structure (SMILES) | IC50 [nM] |
| --- | --- |
| CC(C)(C)C#Cc1ccc(CCS(=O)(=O)Nc2ccccc2S(N)(=O)=O)cc1 [Example 183, 2-(2-(4-(3,3-dimethylbut-1-ynyl)phenyl)ethylsulfonamido)benzenesulfonamide] | 81 |
| NS(=O)(=O)c1ccccc1NS(=O)(=O)c1cccc(-c2cccc(OC(F)(F)F)c2)c1 [Example 121, 2-[[3-[3-(Trifluoromethoxy)phenyl]phenyl]sulfonylamino]benzenesulfonamide] | 220 |
| NS(=O)(=O)c1ccc(F)cc1NS(=O)(=O)/C=C/c1ccc(Cl)c(Cl)c1 [Example 23, 2-[[(E)-2-(3,4-Dichlorophenyl)ethenyl]sulfonylamino]-4-fluoro-benzenesulfonamide] | 270 |
| C/C(=C\c1ccc(Cl)cc1)S(=O)(=O)Nc1cccc(F)c1S(N)(=O)=O [Example 13, 2-[[(E)-1-(4-Chlorophenyl)prop-1-en-2-yl]sulfonylamino]-6-fluoro-benzenesulfonamide] | 520 |
| NS(=O)(=O)c1ccccc1NS(=O)(=O)c1cccc(-c2ccc(Cl)c(Cl)c2)c1 [Example 174, 2-[[3-(3,4-Dichlorophenyl)phenyl]sulfonylamino]benzenesulfonamide] | 220 |
| NS(=O)(=O)c1c(F)cccc1NS(=O)(=O)/C=C/c1ccc2ccccc2c1 [Example 88, 2-Fluoro-6-[[(E)-2-naphthalen-2-ylethenyl]sulfonylamino]benzenesulfonamide] | 1300 |
| NS(=O)(=O)c1ccccc1NS(=O)(=O)CCc1ccc(Cl)cc1 [Example 72, 2-[2-(4-Chlorophenyl)ethylsulfonylamino]benzenesulfonamide] | 490 |
| NS(=O)(=O)c1ccccc1NS(=O)(=O)c1ccc(Cl)c(Cl)c1 [Example 161, 3,4-Dichloro-N-(2-sulfamoylphenyl)benzenesulfonamide] | 1300 |
| NS(=O)(=O)c1ccc(F)cc1NS(=O)(=O)/C=C/c1cccc(C(F)(F)F)c1 [Example 61, 4-Fluoro-2-[[(E)-2-[3-(trifluoromethyl)phenyl]ethenyl]sulfonylamino]-benzenesulfonamide] | 2400 |
| COc1ccc(Cl)cc1-c1cccc(S(=O)(=O)Nc2ccccc2S(N)(=O)=O)c1 [Example 115, 3-(5-Chloro-2-methoxy-phenyl)-N-(2-sulfamoylphenyl)benzenesulfonamide] | 2600 |
| NS(=O)(=O)c1cccc(F)c1NS(=O)(=O)/C=C/c1cccc(Cl)c1 [Example 64, 2-[[(E)-2-(3-Chlorophenyl)ethenyl]sulfonylamino]-3-fluoro-benzenesulfonamide] | 3100 |
| NS(=O)(=O)c1ccccc1NS(=O)(=O)CCc1ccc(C2CCCC2)cc1 [Example 69, 2-[2-(4-Cyclopentylphenyl)ethylsulfonylamino]benzenesulfonamide] | 270 |
| NS(=O)(=O)c1cc(Cl)ccc1NS(=O)(=O)c1cccc(Cl)c1Cl [Example 195, 2,3-Dichloro-N-(4-chloro-2-sulfamoylphenyl)benzenesulfonamide] | 5500 |
| NS(=O)(=O)c1ccccc1NS(=O)(=O)Cc1ccc(Cl)cc1 [Example 112, 2-[(4-Chlorophenyl)methylsulfonylamino]benzenesulfonamide] | 6100 |
| N#Cc1ccc(/C=C/S(=O)(=O)Nc2cccc(F)c2S(N)(=O)=O)cc1 [Example 32, 2-[[(E)-2-(4-Cyanophenyl)ethenyl]sulfonylamino]-6-fluoro-benzenesulfonamide] | 5100 |
| NS(=O)(=O)c1ccccc1NS(=O)(=O)CCc1ccc(OC(F)(F)C(F)F)cc1 [Example 223, 2-(2-(4-(1,1,2,2-tetrafluoroethoxy)phenyl)ethylsulfonamido)benzenesulfonamide] | 420 |
| NS(=O)(=O)c1ccccc1NS(=O)(=O)c1cccc(-c2ccc(C(F)(F)F)cc2)c1 [Example 134, 2-[[3-[4-(Trifluoromethyl)phenyl]phenyl]sulfonylamino]benzenesulfonamide] | 3700 |
| NS(=O)(=O)c1cc(Oc2ccccc2)ccc1NS(=O)(=O)c1cccc(-c2cccc(OC(F)(F)F)c2)c1 [Example 156, 5-Phenoxy-2-[[3-[3-(trifluoromethoxy)phenyl]phenyl]sulfonylamino]-benzenesulfonamide] | 5400 |
| NS(=O)(=O)c1ccccc1NS(=O)(=O)CCc1ccc(C2CCCO2)cc1 (stereo not drawn) [Example 17, 2-[2-[4-(Oxolan-2-yl)phenyl]ethylsulfonylamino]benzenesulfonamide] | 5300 |
| NS(=O)(=O)c1c(F)cccc1NS(=O)(=O)/C=C/c1ccccc1F [Example 62, 2-Fluoro-6-[[(E)-2-(2-fluorophenyl)ethenyl]sulfonylamino]benzenesulfonamide] | 2500 |
| COc1ncc(-c2cccc(S(=O)(=O)Nc3ccncc3S(N)(=O)=O)c2)cc1Cl [Example 203, 4-(3-(5-Chloro-6-methoxypyridin-3-yl)phenylsulfonamido)pyridine-3-sulfonamide] | 2100 |
